Patent publication US20230146455A1, “TREATMENT OF INFLAMMATORY DISEASES WITH PEPTIDES AND PHARMACEUTICAL COMPOSITIONS” (Yuyu Pharma, Inc., priority 2020, published 2023)
“And” between values parts separate entries of the source, which are not always exact repeats. Equal values may be shown once. Where a SMILES comes first, the peptide text is derived from it. [ ]: non-standard residue; d: D form. Hyp = O=C(O)[C@@H]1C[C@@H](O)CN1

Tested on: human PBMCs
Assay: PBMC cell counts (total, live, viability; trypan blue, Countess) with and without LPS and test articles (Example 9)
Type: cell-based
Procedure: Treatment Human PBMCs were pretreated with YY-101, YDE-011 and YDE-043 or reference compound; Xiidra® at various concentration (ranging from 1 nM to 100 uM) for 2 h before stimulation. An equal volume of 0.5% DMSO was used as a vehicle control. Then, the cells were treated with LPS at 5 ug/ml. The supernatants from treated cells were harvested at 24 h and placed in a 96 well for Luminex cytokine & chemokine profiling using a Luminex 200 multiplex assay (Luminex; R&D system, USA).
The main study arm with triplicate wells per group in a 24-well plate: • 1. Blank • 2. PBMC: 0.5% DMSO • 3. PBMC+LPS (5 ug/ml) • 4. PBMC+YY-101 100 uM • 5. PBMC+YY-101 10 uM • 6. PBMC+YY-101 1 uM • 7. PBMC+YY-101 0.1 uM • 8. PBMC+YY-101 0.01 uM • 9. PBMC+LPS (5 ug/ml)+Xiidra®100 uM • 10. PBMC+LPS (5 ug/ml)+Xiidra® 10 uM • 11. PBMC+LPS (5 ug/ml)+Xiidra® 1 uM • 12. PBMC+LPS (5 ug/ml)+Xiidra®0.1 uM • 13. PBMC+LPS (5 ug/ml)+Xiidra®0.01 uM • 14. PBMC+LPS (5 ug/ml)+Xiidra®0.001 uM • 15. PBMC+LPS (5 ug/ml)+YY-101 100 uM • 16. PBMC+LPS (5 ug/ml)+YY-101 10 uM • 17. PBMC+LPS (5 ug/ml)+YY-101 1 uM • 18. PBMC+LPS (5 ug/ml)+YY-101 0.1 uM • 19. PBMC+LPS (5 ug/ml)+YY-101 0.01 uM • 20. PBMC+LPS (5 ug/ml)+YY-101 0.001 uM • 21. PBMC+LPS (5 ug/ml)+YDE-011 100 uM • 22. PBMC+LPS (5 ug/ml)+YDE-011 10 uM • 23. PBMC+LPS (5 ug/ml)+YDE-011 1 uM • 24. PBMC+LPS (5 ug/ml)+YDE-011 0.1 uM • 25. PBMC+LPS (5 ug/ml)+YDE-011 0.01 uM • 26. PBMC+LPS (5 ug/ml)+YDE-011 0.001 uM • 27. PBMC+LPS (5 ug/ml)+YDE-043 100 uM • 28. PBMC+LPS (5 ug/ml)+YDE-043 10 uM • 29. PBMC+LPS (5 ug/ml)+YDE-043 1 uM • 30. PBMC+LPS (5 ug/ml)+YDE-043 0.1 uM • 31. PBMC+LPS (5 ug/ml)+YDE-043 0.01 uM • 32. PBMC+LPS (5 ug/ml)+YDE-043 0.001 uM
The number of PBMCs was measured after 24 hr of treatment. The culture both and trypan blue were diluted 1:1 and 10 ul was added to Countess cell counting chamber (Thermo fisher, USA). The number of PBMCs was measured using a Countess automated cell counter (Thermo fisher, USA).

[1] = PBMC + LPS(5 ug/ml) + compound 0.001 uM, 24 hr
[2] = PBMC + LPS(5 ug/ml) + compound 0.01 uM, 24 hr
[3] = PBMC + LPS(5 ug/ml) + compound 0.1 uM, 24 hr
[4] = PBMC + LPS(5 ug/ml) + compound 1 uM, 24 hr
[5] = PBMC + LPS(5 ug/ml) + compound 10 uM, 24 hr
[6] = PBMC + LPS(5 ug/ml) + compound 100 uM, 24 hr
[7] = PBMC + LPS(5 ug/ml) + test article 0.001 uM, Mean
[8] = PBMC + LPS(5 ug/ml) + test article 0.001 uM, single replicates
[9] = PBMC + LPS(5 ug/ml) + test article 0.01 uM, Mean
[10] = PBMC + LPS(5 ug/ml) + test article 0.01 uM, single replicates
[11] = PBMC + LPS(5 ug/ml) + test article 0.1 uM, Mean
[12] = PBMC + LPS(5 ug/ml) + test article 0.1 uM, single replicates
[13] = PBMC + LPS(5 ug/ml) + test article 1 uM, Mean
[14] = PBMC + LPS(5 ug/ml) + test article 1 uM, single replicates
[15] = PBMC + LPS(5 ug/ml) + test article 10 uM, Mean
[16] = PBMC + LPS(5 ug/ml) + test article 10 uM, single replicates
[17] = PBMC + LPS(5 ug/ml) + test article 100 uM, Mean
[18] = PBMC + LPS(5 ug/ml) + test article 100 uM, single replicates
[19] = PBMC + LPS(5 ug/ml), test article 0.001 uM, Mean
[20] = PBMC + LPS(5 ug/ml), test article 0.001 uM, single replicates
[21] = PBMC + LPS(5 ug/ml), test article 0.01 uM, Mean
[22] = PBMC + LPS(5 ug/ml), test article 0.01 uM, single replicates
[23] = PBMC + LPS(5 ug/ml), test article 0.1 uM, Mean
[24] = PBMC + LPS(5 ug/ml), test article 0.1 uM, single replicates
[25] = PBMC + LPS(5 ug/ml), test article 1 uM, Mean
[26] = PBMC + LPS(5 ug/ml), test article 1 uM, single replicates
[27] = PBMC + LPS(5 ug/ml), test article 10 uM, Mean
[28] = PBMC + LPS(5 ug/ml), test article 10 uM, single replicates

## CC(C)C[C@H](NC(=O)CNC(=O)[C@H](CC(=O)O)NC(=O)[C@H](CCC(N)=O)NC(=O)CNC(=O)[C@@H]1C[C@@H](O)CN1)C(=O)N[C@@H](C)C(=O)NCC(=O)N1CCC[C@H]1C(=O)N[C@@H](CCCCN)C(=O)O [YY-101] (H-[Hyp]GQDGLAGPK-OH; N-terminus and C-terminus assumed)
[1]
  Live cell: 6.5 ± 0.4 10^5/ml
  Total cell: 7.7 ± 0.6 10^5/ml
[2]
  Live cell: 6.2 ± 0.1 10^5/ml
  Total cell: 8.1 ± 0.6 10^5/ml
[3]
  Live cell: 5.9 ± 0.3 10^5/ml
  Total cell: 7.8 ± 0.8 10^5/ml
[4]
  Live cell: 6.5 ± 0.3 10^5/ml
  Total cell: 9.8 ± 0.6 10^5/ml
[5]
  Live cell: 6.7 ± 0.5 10^5/ml
  Total cell: 9.1 ± 1.1 10^5/ml
[6]
  Live cell: 5.8 ± 0.4 10^5/ml
  Total cell: 7.8 ± 1.0 10^5/ml
[7]
  Live cell: 6.5 10^5/ml
  Live cell (10^5/ml): 6.5 10^5/ml
  Live cell, Mean: 6.5 10^5/ml
PBMC + LPS(5 ug/ml) + test article 0.001 uM, individual replicates (1st, 2nd, 3rd)
  Live cell: 5.7 10^5/ml and 7.1 10^5/ml and 6.6 10^5/ml
[8]
  Live cell: 5.7 10^5/ml and 7.1 10^5/ml and 6.6 10^5/ml
  Live cell (10^5/ml): 5.7 10^5/ml and 7.1 10^5/ml and 6.6 10^5/ml
PBMC + LPS(5 ug/ml) + test article 0.001 uM, single replicates (1st, 2nd, 3rd)
  Live cell: 5.7 10^5/ml and 7.1 10^5/ml and 6.6 10^5/ml
[9]
  Live cell: 6.2 10^5/ml
  Live cell (10^5/ml): 6.2 10^5/ml
  Live cell, Mean: 6.2 10^5/ml
PBMC + LPS(5 ug/ml) + test article 0.01 uM, individual replicates (1st, 2nd, 3rd)
  Live cell: 6.4 10^5/ml and 6.0 10^5/ml and 6.1 10^5/ml
[10]
  Live cell: 6.4 10^5/ml and 6.0 10^5/ml and 6.1 10^5/ml
  Live cell (10^5/ml): 6.4 10^5/ml and 6.0 10^5/ml and 6.1 10^5/ml
PBMC + LPS(5 ug/ml) + test article 0.01 uM, single replicates (1st, 2nd, 3rd)
  Live cell: 6.4 10^5/ml and 6.0 10^5/ml and 6.1 10^5/ml
[11]
  Live cell: 5.9 10^5/ml
  Live cell (10^5/ml): 5.9 10^5/ml
  Live cell, Mean: 5.9 10^5/ml
[12]
  Live cell: 6.2 10^5/ml (2×) and 5.2 10^5/ml
  Live cell (10^5/ml): 6.2 10^5/ml (2×) and 5.2 10^5/ml
PBMC + LPS(5 ug/ml) + test article 0.1 uM, single replicates (1st, 2nd, 3rd)
  Live cell: 6.2 10^5/ml (2×) and 5.2 10^5/ml
[13]
  Live cell: 6.5 10^5/ml
  Live cell (10^5/ml): 6.5 10^5/ml
  Live cell, Mean: 6.5 10^5/ml
[14]
  Live cell: 6.3 10^5/ml and 7.1 10^5/ml and 6.2 10^5/ml
  Live cell (10^5/ml): 6.3 10^5/ml and 7.1 10^5/ml and 6.2 10^5/ml
PBMC + LPS(5 ug/ml) + test article 1 uM, single replicates (1st, 2nd, 3rd)
  Live cell: 6.3 10^5/ml and 7.1 10^5/ml and 6.2 10^5/ml
[15]
  Live cell: 6.7 10^5/ml
  Live cell (10^5/ml): 6.7 10^5/ml
  Live cell, Mean: 6.7 10^5/ml
[16]
  Live cell: 6.0 10^5/ml and 6.4 10^5/ml and 7.6 10^5/ml
  Live cell (10^5/ml): 6.0 10^5/ml and 6.4 10^5/ml and 7.6 10^5/ml
PBMC + LPS(5 ug/ml) + test article 10 uM, single replicates (1st, 2nd, 3rd)
  Live cell: 6.0 10^5/ml and 6.4 10^5/ml and 7.6 10^5/ml
[17]
  Live cell: 5.8 10^5/ml
  Live cell (10^5/ml): 5.8 10^5/ml
  Live cell, Mean: 5.8 10^5/ml
[18]
  Live cell: 6.3 10^5/ml and 6.2 10^5/ml and 5.0 10^5/ml
  Live cell (10^5/ml): 6.3 10^5/ml and 6.2 10^5/ml and 5.0 10^5/ml
PBMC + LPS(5 ug/ml) + test article 100 uM, single replicates (1st, 2nd, 3rd)
  Live cell: 6.3 10^5/ml and 6.2 10^5/ml and 5.0 10^5/ml
PBMC + LPS(5 ug/ml), 0.001 uM, Mean
  Live cell: 6.5 10^5/ml
PBMC + LPS(5 ug/ml), 0.001 uM, single replicates
  Live cell: 5.7 10^5/ml and 7.1 10^5/ml and 6.6 10^5/ml
PBMC + LPS(5 ug/ml), 0.01 uM, Mean
  Live cell: 6.2 10^5/ml
PBMC + LPS(5 ug/ml), 0.01 uM, single replicates
  Live cell: 6.4 10^5/ml and 6.0 10^5/ml and 6.1 10^5/ml
PBMC + LPS(5 ug/ml), 0.1 uM, Mean
  Live cell: 5.9 10^5/ml
PBMC + LPS(5 ug/ml), 0.1 uM, single replicates
  Live cell: 6.2 10^5/ml (2×) and 5.2 10^5/ml
PBMC + LPS(5 ug/ml), 1 uM, Mean
  Live cell: 6.5 10^5/ml
PBMC + LPS(5 ug/ml), 1 uM, single replicates
  Live cell: 6.3 10^5/ml and 7.1 10^5/ml and 6.2 10^5/ml
PBMC + LPS(5 ug/ml), 10 uM, Mean
  Live cell: 6.7 10^5/ml
PBMC + LPS(5 ug/ml), 10 uM, single replicates
  Live cell: 6.0 10^5/ml and 6.4 10^5/ml and 7.6 10^5/ml
PBMC + LPS(5 ug/ml), 100 uM, Mean
  Live cell: 5.8 10^5/ml
PBMC + LPS(5 ug/ml), 100 uM, single replicates
  Live cell: 6.3 10^5/ml and 6.2 10^5/ml and 5.0 10^5/ml
[19]
  Live cell: 6.5 10^5/ml
  Total cell count: 7.7 10^5/ml
[20]
  Live cell: 5.7 10^5/ml and 7.1 10^5/ml and 6.6 10^5/ml
  Total cell count: 6.7 10^5/ml and 8.8 10^5/ml and 7.5 10^5/ml
  Viability: 84.0% and 80.0% and 89.0%
[21]
  Live cell: 6.2 10^5/ml
  Total cell count: 8.1 10^5/ml
[22]
  Live cell: 6.4 10^5/ml and 6.0 10^5/ml and 6.1 10^5/ml
  Total cell count: 9.2 10^5/ml and 8.1 10^5/ml and 7.0 10^5/ml
  Viability: 70.0% and 75.0% and 87.0%
[23]
  Live cell: 5.9 10^5/ml
  Total cell count: 7.8 10^5/ml
[24]
  Live cell: 6.2 10^5/ml (2×) and 5.2 10^5/ml
  Total cell count: 9.3 10^5/ml and 6.7 10^5/ml and 7.5 10^5/ml
  Viability: 67.0% and 77.0% and 83.0%
[25]
  Live cell: 6.5 10^5/ml
  Total cell count: 9.8 10^5/ml
[26]
  Live cell: 6.3 10^5/ml and 7.1 10^5/ml and 6.2 10^5/ml
  Total cell count: 8.8 10^5/ml and 9.7 10^5/ml and 11.0 10^5/ml
  Viability: 72.0% and 73.0% and 55.0%
[27]
  Live cell: 6.7 10^5/ml
  Total cell count: 9.1 10^5/ml
[28]
  Live cell: 6.0 10^5/ml and 6.4 10^5/ml and 7.6 10^5/ml
  Total cell count: 7.3 10^5/ml and 9.0 10^5/ml and 11.0 10^5/ml
  Viability: 83.0% and 71.0% and 67.0%
